Reference: patent US11046720B2, “Dimethylphosphine oxide compound” (GUIZHOU INOCHINI TECHNOLOGY CO., LTD, priority 2018, dated 2021)

system: not listed separately; assay: Pharmacokinetic evaluation in C57BL/6 mice, brain tissues and plasma; type: in vivo; details: male, C57BL/6, mouse, brain/plasma, oral, 5 mg/kg, read-out: drug concentration ratio between brain tissues and plasma (B/P)
Protocol: Experimental purpose: to study pharmacokinetics of the compounds in vivo in C57BL/6 mice—drug concentration ratio between brain tissues and plasma
Experimental materials: C57BL/6 mice (male, 8 weeks old, weight: 25 g-30 g)
Assay Pharmacokinetic Features of Glires after they are Orally Administered the Compounds According to Standard Schemes.
In the experiment, the candidate compounds are prepared into 1 mg/mL mixed suspension, and mice are orally administered once. The menstruum for oral administration is 10% dimethyl sulfoxide (DMSO)/10% polysorbate/20% PEG-400 aqueous solution. This project uses male C57BL/6 mice, which are orally administered drugs at a dose of 5 mg/kg. Collect the whole brain 0.5, 1, 2 and 4 hours after the administration. Homogenize tissue samples with 15 mM [[…] (pH=7.4) buffer and methanol (volume ratio: 2:1)] at a ratio of 1:5 (w:v). Equally divide the homogenate into 2 samples: one for assay and the other for standby use. Besides, collect plasma 0.5, 1, 2 and 4 hours after administration. Centrifugate with 3,000 g relative centrifugal force within half an hour after collection at about 4° C. for 15 minutes to separate supernatant and obtain plasma samples. Store the plasma samples in polypropylene tubes; rapidly freeze them on dry ice and keep them at −80° C. till LC/MS/MS assay. Add internal standard precipitated protein of acetonitrile solution and fully mix them to extract supernatant samples via centrifugation. Quantitatively analyze plasma concentration by LC-MS/MS assay and calculate pharmacokinetic parameters such as maximal concentration (Cmax), half-life (T1/2), maximal time (Tmax), drug concentration in different tissues after administration (AUC0-last), and drug concentration ratio between brain tissues and plasma (B/P).

In order of rising Kp:
1. COc1nc(N2CC3(CCOCC3)C2)ccc1Nc1ncc(Cl)c(Nc2ccccc2P(C)(C)=O)n1 [Embodiment 3]  0.14
2. COc1nc(N2CC3(CCOC3)C2)ccc1Nc1ncc(Cl)c(Nc2ccccc2P(C)(C)=O)n1 [Embodiment 9]  0.2

same assay, conditions: male, C57BL/6, mouse, oral, 5 mg/kg, brain tissues, read-out: AUC0-last Brain Tissues

In order of falling AUC(0-t):
1. COc1nc(N2CC3(CCOC3)C2)ccc1Nc1ncc(Cl)c(Nc2ccccc2P(C)(C)=O)n1 [Embodiment 9]  0.489 µM·h
2. COc1nc(N2CC3(CCOCC3)C2)ccc1Nc1ncc(Cl)c(Nc2ccccc2P(C)(C)=O)n1 [Embodiment 3]  0.192 µM·h

same assay, conditions: male, C57BL/6, mouse, oral, 5 mg/kg, brain tissues, read-out: T1/2 Brain Tissues (converted)

Compound `COc1nc(N2CC3(CCOC3)C2)ccc1Nc1ncc(Cl)c(Nc2ccccc2P(C)(C)=O)n1` [Embodiment 9] has a half-life of 21.6 min.

same assay, conditions: male, C57BL/6, mouse, oral, 5 mg/kg, brain tissues, read-out: Tmax Brain Tissues

In order of falling Tmax:
1. COc1nc(N2CC3(CCOCC3)C2)ccc1Nc1ncc(Cl)c(Nc2ccccc2P(C)(C)=O)n1 [Embodiment 3]  30 min
2. COc1nc(N2CC3(CCOC3)C2)ccc1Nc1ncc(Cl)c(Nc2ccccc2P(C)(C)=O)n1 [Embodiment 9]  30 min

same assay, conditions: male, C57BL/6, mouse, oral, 5 mg/kg, plasma

In order of rising Cmax:
1. COc1nc(N2CC3(CCOCC3)C2)ccc1Nc1ncc(Cl)c(Nc2ccccc2P(C)(C)=O)n1 [Embodiment 3]  1180 nM
2. COc1nc(N2CC3(CCOC3)C2)ccc1Nc1ncc(Cl)c(Nc2ccccc2P(C)(C)=O)n1 [Embodiment 9]  2600 nM

same assay, conditions: male, C57BL/6, mouse, oral, 5 mg/kg, plasma, read-out: AUC0-last Plasma

In order of rising AUC(0-t):
1. COc1nc(N2CC3(CCOCC3)C2)ccc1Nc1ncc(Cl)c(Nc2ccccc2P(C)(C)=O)n1 [Embodiment 3]  1.39 µM·h
2. COc1nc(N2CC3(CCOC3)C2)ccc1Nc1ncc(Cl)c(Nc2ccccc2P(C)(C)=O)n1 [Embodiment 9]  2.48 µM·h

same assay, conditions: male, C57BL/6, mouse, oral, 5 mg/kg, plasma, read-out: T1/2 Plasma (converted)

In order of rising half-life:
1. COc1nc(N2CC3(CCOC3)C2)ccc1Nc1ncc(Cl)c(Nc2ccccc2P(C)(C)=O)n1 [Embodiment 9]  33.6 min
2. COc1nc(N2CC3(CCOCC3)C2)ccc1Nc1ncc(Cl)c(Nc2ccccc2P(C)(C)=O)n1 [Embodiment 3]  35.4 min

same assay, conditions: male, C57BL/6, mouse, oral, 5 mg/kg, plasma, read-out: Tmax Plasma

In order of falling Tmax:
1. COc1nc(N2CC3(CCOCC3)C2)ccc1Nc1ncc(Cl)c(Nc2ccccc2P(C)(C)=O)n1 [Embodiment 3]  30 min
2. COc1nc(N2CC3(CCOC3)C2)ccc1Nc1ncc(Cl)c(Nc2ccccc2P(C)(C)=O)n1 [Embodiment 9]  30 min

same assay, conditions: oral, 5 mg/kg, brain tissues

In order of rising “Cmax Brain Tissues” value:
1. COc1nc(N2CC3(CCOCC3)C2)ccc1Nc1ncc(Cl)c(Nc2ccccc2P(C)(C)=O)n1 [Embodiment 3]  217 nM
2. COc1nc(N2CC3(CCOC3)C2)ccc1Nc1ncc(Cl)c(Nc2ccccc2P(C)(C)=O)n1 [Embodiment 9]  604 nM

target: T1, LRRK2 full-length human recombinant protein (Homo sapiens, UniProt Q5S007); assay: In vitro evaluation of LRRK2 kinase inhibitory activity (HTRF / TR-FRET, LRRKtide); type: biochemical; details: 57 μM ATP, 0.4 uM Fluorescein-ERM (LRRKtide) peptide
T1 construct: express LRRK2 full-length human recombinant protein in Sf9 cells of insects; GST; made in house; host or cells: Sf9 insect cells (baculovirus)
Protocol: Experimental purpose: to detect transfer of energy signals (ratio of fluorescence signals: […]) after the phosphate group of phosphorylated Fluorescein-ERM (LRRKtide) peptide binds with LanthaScreen® Tb-pERM (pLRRKtide) antibody using homogeneous time-resolved fluorescence. Calculate IC50 for LRRK2 inhibition of the compound to be assayed.
1. Reaction solution: 10 mM 4-(2-hydroxyethyl) piperazine-1-ethanesulfonic acid (pH 7.5); 2 mM magnesium chloride; 0.5 mM glycol-bis-(2-aminoethylether)-N; 0.002% primary alcohol ethoxylate, 1 mM dithiothreitol and 1% DMSO;
2. Assay solution: TR-FRET Dilution Buffer;
3. LRRK2 human recombinant protein: use GST tag and baculovirus to express LRRK2 full-length human recombinant protein in Sf9 cells of insects;
4. Substrate: 0.4 uM Fluorescein-ERM (LRRKtide) peptide; 57 uM ATR
Resonance energy transfer of Fluorescein-ERM (LRRKtide) peptide and LanthaScreen® Tb-pERM (pLRRKtide) antibody between […].
1. Add DMSO solution of the compound to be assayed through the Echo550 non-contact nano-liter acoustic droplet ejection system;
2. Prepare mixed solution of enzyme and polypeptide with freshly prepared reaction solution. Add the mixed solution to the reaction cavity and warm it up at room temperature for 20 minutes in advance;
3. Add 57 μM ATP to initiate reaction, which lasts for 90 minutes at room temperature;
4. Add fluorescein-ERM (LRRKtide) peptide, LanthaScreen® Tb-pERM (pLRRKtide) antibody and 10 mM ethylene diamine tetraacetic acid to the assay system. The reaction lasts for 60 minutes at room temperature. Detect yellow light signals with Em/Ex 520/485.
5. Measure enzyme activity inhibition relative to DMSO blank control group according to the signal ratio, and calculate IC50 by fitting curves with the software XLfit5.

T1 sequence (Q5S007 whole entry): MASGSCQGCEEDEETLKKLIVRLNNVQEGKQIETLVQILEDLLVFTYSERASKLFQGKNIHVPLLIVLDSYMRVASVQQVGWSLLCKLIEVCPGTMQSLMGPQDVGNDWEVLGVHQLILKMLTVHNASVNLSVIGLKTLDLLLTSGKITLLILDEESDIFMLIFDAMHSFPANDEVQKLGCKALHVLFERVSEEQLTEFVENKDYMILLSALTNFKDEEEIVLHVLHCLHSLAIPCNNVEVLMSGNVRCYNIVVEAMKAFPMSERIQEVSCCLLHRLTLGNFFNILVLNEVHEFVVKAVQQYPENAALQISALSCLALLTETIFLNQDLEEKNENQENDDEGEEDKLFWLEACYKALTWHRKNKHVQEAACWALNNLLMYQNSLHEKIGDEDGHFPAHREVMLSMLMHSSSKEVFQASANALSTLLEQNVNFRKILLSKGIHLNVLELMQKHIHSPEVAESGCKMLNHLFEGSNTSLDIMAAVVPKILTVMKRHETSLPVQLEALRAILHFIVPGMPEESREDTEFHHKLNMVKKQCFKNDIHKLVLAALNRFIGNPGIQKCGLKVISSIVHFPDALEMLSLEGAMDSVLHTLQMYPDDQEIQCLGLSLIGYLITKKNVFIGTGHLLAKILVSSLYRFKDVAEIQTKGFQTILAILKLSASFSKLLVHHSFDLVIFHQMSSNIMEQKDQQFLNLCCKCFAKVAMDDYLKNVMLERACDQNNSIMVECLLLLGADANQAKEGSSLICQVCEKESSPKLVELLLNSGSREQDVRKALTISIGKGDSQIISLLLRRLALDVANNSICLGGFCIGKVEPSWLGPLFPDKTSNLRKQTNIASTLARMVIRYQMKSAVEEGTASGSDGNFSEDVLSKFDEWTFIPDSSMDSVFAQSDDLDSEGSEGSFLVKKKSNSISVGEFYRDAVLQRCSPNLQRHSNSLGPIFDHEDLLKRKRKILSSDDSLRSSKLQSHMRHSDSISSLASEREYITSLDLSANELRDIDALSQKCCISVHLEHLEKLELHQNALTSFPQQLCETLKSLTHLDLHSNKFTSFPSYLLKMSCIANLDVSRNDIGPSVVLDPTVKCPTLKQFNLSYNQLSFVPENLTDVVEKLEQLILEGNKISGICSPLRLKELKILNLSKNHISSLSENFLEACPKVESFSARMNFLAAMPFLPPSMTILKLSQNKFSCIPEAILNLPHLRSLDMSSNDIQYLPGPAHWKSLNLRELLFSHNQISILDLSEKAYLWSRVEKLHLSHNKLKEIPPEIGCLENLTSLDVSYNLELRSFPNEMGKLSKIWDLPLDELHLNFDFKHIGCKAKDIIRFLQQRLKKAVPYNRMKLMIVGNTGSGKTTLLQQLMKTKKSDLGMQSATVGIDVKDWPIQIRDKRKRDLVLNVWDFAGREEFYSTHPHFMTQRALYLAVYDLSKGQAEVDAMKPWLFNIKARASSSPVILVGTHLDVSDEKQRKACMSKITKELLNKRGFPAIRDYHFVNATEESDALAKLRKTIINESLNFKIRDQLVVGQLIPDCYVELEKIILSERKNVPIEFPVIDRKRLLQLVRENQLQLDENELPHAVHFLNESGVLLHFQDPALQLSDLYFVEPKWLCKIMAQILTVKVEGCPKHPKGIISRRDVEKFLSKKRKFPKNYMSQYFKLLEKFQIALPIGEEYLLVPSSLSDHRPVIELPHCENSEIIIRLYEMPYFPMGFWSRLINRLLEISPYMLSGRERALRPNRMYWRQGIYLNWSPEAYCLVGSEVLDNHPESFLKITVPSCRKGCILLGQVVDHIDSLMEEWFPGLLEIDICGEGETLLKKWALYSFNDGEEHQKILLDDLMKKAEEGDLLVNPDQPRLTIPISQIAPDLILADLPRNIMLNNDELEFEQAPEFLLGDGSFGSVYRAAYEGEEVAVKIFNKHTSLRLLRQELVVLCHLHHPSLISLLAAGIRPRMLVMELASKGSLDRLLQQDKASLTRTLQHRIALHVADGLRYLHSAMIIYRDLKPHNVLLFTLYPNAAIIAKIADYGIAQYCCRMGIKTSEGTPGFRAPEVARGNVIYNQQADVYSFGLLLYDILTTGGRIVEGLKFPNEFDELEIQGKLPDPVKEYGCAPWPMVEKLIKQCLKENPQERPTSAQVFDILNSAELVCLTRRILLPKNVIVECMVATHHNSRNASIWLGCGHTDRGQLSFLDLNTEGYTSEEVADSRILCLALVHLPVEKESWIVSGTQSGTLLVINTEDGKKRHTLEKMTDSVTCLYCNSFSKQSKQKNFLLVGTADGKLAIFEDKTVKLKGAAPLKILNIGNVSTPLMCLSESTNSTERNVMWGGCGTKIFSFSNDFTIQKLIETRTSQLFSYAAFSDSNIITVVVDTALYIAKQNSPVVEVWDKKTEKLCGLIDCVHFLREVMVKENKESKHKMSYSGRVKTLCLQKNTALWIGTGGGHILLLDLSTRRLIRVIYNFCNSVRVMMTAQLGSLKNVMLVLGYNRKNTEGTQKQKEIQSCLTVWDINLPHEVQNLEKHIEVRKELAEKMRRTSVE

In order of rising IC50:
1. COc1nc(N2CC3(CCOCC3)C2)ccc1Nc1ncc(Cl)c(Nc2ccccc2P(C)(C)=O)n1 [Embodiment 3]  6.2 nM
2. COc1nc(N2CC3(CCOC3)C2)ccc1Nc1ncc(Cl)c(Nc2ccccc2P(C)(C)=O)n1 [Embodiment 9]  7.8 nM

target: T2, LRRK2 (pSer935) (Homo sapiens, UniProt Q5S007); assay: In vitro evaluation of inhibitory activity for LRRK2 cell (pSer935), 293T cells transfected with pcmv-flag-lrrk2, MSD; type: cell-based; details: not given
T2 construct: expressed in transfected cells; host or cells: 293T cells
Protocol: Take 293T cells out of liquid nitrogen and put them in water at 37° C. After ice has fully thawed, transfer the cells to 5 mL warm culture medium. Discard the supernatant through centrifugation, and culture the suspended cells in the culture medium as new cells.
Culture the 293T cells in the culture medium for two to three days.
Plant 1.4×10^6/293T cells on a culture plate. After two days of culturing, cells will multiply to 5×10^6, so planting cells on N+1 plates is enough for performing experiments on N 96-well plates.
1) Add 5 μl (0.5 μg/μl) pcmv-flag-Irrk2 to 145 μl DMEM culture medium, and mix them evenly with a straw;
6) Incubate the culture plate inside a humidified incubator with 5% carbon dioxide for 20 to 24 hours at 37° C.
3. (Day 3) Plant the 293T Cells on the 96-Well Plate;
3) Transfer 50 μl inhibitor containing culture medium to the cell culture plate;
4) Incubate the culture plate inside a humidified incubator with 5% carbon dioxide for 20 to 24 hours at 37° C.;
5) Extract 300 μl inhibitor containing culture medium with a dropper. Take 200 μl inhibitor containing culture medium and add 100 μl decomposer into the culture medium. After the plate has been sealed, it shall be shaken for 30 minutes at 4° C.
1) Add 2 μg/25 μl labeled antibody to the MSD plate to incubate for 2 hours; (50 μl 3.9 μg/μl Flag antibody+2.5 ml fetal bovine serum per plate). Maintain centrifugation for 10 s (1,000 rpm);
5) Transfer 12.5 μl lysis buffer and 12.5 μl cell lysis buffer to the MSD plate to incubate for 1 hour at room temperature;
7) Dilute ps935 antibody at 1:200, and add 25 μl antibody to incubate for 1 hour;
9) Dilute goat anti-rabbit antibody at 1:500, and add 25 μl antibody to the incubation plate to incubate for 1 hour;
13) After incubation for about 3 minutes, read data over 15 minutes.

T2 sequence (Q5S007 whole entry): as above

In order of rising IC50:
1. COc1nc(N2CC3(CCOCC3)C2)ccc1Nc1ncc(Cl)c(Nc2ccccc2P(C)(C)=O)n1 [Embodiment 3]  4.3 nM
2. COc1nc(N2CC3(CCOC3)C2)ccc1Nc1ncc(Cl)c(Nc2ccccc2P(C)(C)=O)n1 [Embodiment 9]  4.7 nM
